Reference: ChEMBL document CHEMBL3714737, “Small molecule modulators of G protein-coupled receptor six” (2002)
Calls of active or inactive are those of the source. The rule behind the calls is not given here.

Assays:
Rattus norvegicus [1] = assay: Reduction in food intake in 24 hrs food-deprived Sprague-Dawley rat assessed as food intake level at 54 mg/kg, po followed by standard chow pellets feeding and measured 8 hrs post dose (reference value: 14g); type: functional
Rattus norvegicus [2] = assay: Induction of sedation in non-food-deprived Sprague-Dawley rat subjected to pre-pulse of 12 db followed by 120 db pulse assessed as animal jump height level at 6.75 mg/kg, po dosed […] before test; type: organism-based; conditions: in vivo
Rattus norvegicus [3] = assay: Induction of sedation in non-food-deprived Sprague-Dawley rat subjected to pre-pulse of 12 db followed by 120 db pulse assessed as animal jump height level at 13.5 and 54 mg/kg, po dosed […] before test; type: organism-based; conditions: in vivo
Rattus norvegicus [4] = assay: Induction of sedation in ip dosed Sprague-Dawley rat assessed as absence of anxiety-like behavior after 16 hrs post dose; type: organism-based; conditions: in vivo
Rattus norvegicus [5] = assay: Effect on motor function in ip dosed Sprague-Dawley rat assessed as effect on locomotor activity after 16 hrs post dose; type: ADME, organism-based; conditions: in vivo
Rattus norvegicus [6] = assay: Reduction in water intake in 24 hrs food-deprived Sprague-Dawley rat assessed reduction in water intake level at 100 nmol, icv relative to control; type: functional
Rattus norvegicus [7] = assay: Reduction in food intake in 24 hrs food-deprived Sprague-Dawley rat at 25 to 100 nmol, icv measured 2.5 hrs post dose relative to control; type: functional
Rattus norvegicus [8] = assay: Reduction in body weight gain in non-food-deprived Sprague-Dawley rat at 13.5 mg/kg, ip qd for 22 days measured between day-31 and day-60 post dose; type: functional, organism-based
Rattus norvegicus [9] = assay: Reduction in body weight gain in non-food-deprived Sprague-Dawley rat at 13.5 mg/kg, ip qd for 22 days measured between day-4 and day-31 post dose; type: functional, organism-based
Rattus norvegicus [10] = assay: Reduction in body weight gain in non-food-deprived Sprague-Dawley rat at 13.5 mg/kg, ip qd for 22 days measured on day-1 and day-3 post dose; type: functional, organism-based
Rattus norvegicus [11] = assay: Reduction in body weight gain in non-food-deprived Sprague-Dawley rat at 6.75 to 54 mg/kg, ip dosed 30 mins before beginning of dark cycle followed by exposure to standard chow pellets and measured 15.5 hrs post dose; type: functional, organism-based
Rattus norvegicus [12] = assay: Reduction in water intake in non-food-deprived Sprague-Dawley rat at 6.75 to 54 mg/kg, ip dosed 30 mins before beginning of dark cycle followed by exposure to standard chow pellets and measured 15.5 hrs post dose; type: functional, organism-based
Rattus norvegicus [13] = assay: Induction of sedation in ip dosed Sprague-Dawley rat assessed as relaxed behavior after 16 hrs post dose; type: organism-based; conditions: in vivo
[14] = target: G-protein coupled receptor 6 (Homo sapiens) (UniProt P46095); assay: Activity at rat G-protein GSalpha fused GPR6 (unknown origin) expressed in HEK293 cell membranes assessed as effect on [35S]GTPgammaS binding pre-incubated for 5 to 10 mins followed by 60 mins incubation in presence of [35S]GTPgammaS by scintillation proximity assay; type: functional
Sequence of G-protein coupled receptor 6 (Homo sapiens) (P46095 whole entry, the tested form may be a part): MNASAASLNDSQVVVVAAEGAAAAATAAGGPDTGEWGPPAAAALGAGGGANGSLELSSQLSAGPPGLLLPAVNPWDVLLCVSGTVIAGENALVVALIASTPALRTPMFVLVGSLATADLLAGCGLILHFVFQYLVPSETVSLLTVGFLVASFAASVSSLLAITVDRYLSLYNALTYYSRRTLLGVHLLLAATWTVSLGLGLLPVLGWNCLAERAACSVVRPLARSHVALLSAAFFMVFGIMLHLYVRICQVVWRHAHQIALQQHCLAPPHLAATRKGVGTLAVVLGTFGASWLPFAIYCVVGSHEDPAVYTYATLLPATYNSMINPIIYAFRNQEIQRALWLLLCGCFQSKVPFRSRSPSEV

Rattus norvegicus [15] = assay: Effect on motor function in ip dosed Sprague-Dawley rat assessed as effect on locomotor activity after 1.5 hrs post dose; type: ADME, organism-based; conditions: in vivo
Rattus norvegicus [16] = assay: Reduction in 24 hrs food intake in 24 hrs food-deprived Sprague-Dawley rat at 6.75 to 54 mg/kg, ip followed by standard chow pellets feeding and measured for 6.5 hrs post dose; type: functional, organism-based
Rattus norvegicus [17] = assay: Reduction in water intake in 24 hrs food-deprived Sprague-Dawley rat at 6.75 to 54 mg/kg, ip followed by standard chow pellets feeding and measured for 6.5 hrs post dose; type: functional, organism-based
Rattus norvegicus [18] = assay: Reduction in body weight gain in 24 hrs food-deprived Sprague-Dawley rat at 6.75 to 54 mg/kg, ip followed by standard chow pellets feeding and measured for 6.5 hrs post dose; type: functional, organism-based
Rattus norvegicus [19] = assay: Reduction in body weight gain in 24 hrs food-deprived Sprague-Dawley rat at 27 and 54 mg/kg, ip followed by standard chow pellets feeding and measured for 6.5 hrs post dose; type: functional, organism-based

O=C(/N=C1\SSC2=NCCN21)c1cccs1
Activity (Rattus norvegicus [1]): 16 g
Activity (Rattus norvegicus [2]): Non-toxic
Activity (Rattus norvegicus [3]): Toxic
Activity (Rattus norvegicus [4]): Toxic
Activity (Rattus norvegicus [5]): Toxic
inhibition (INH) (Rattus norvegicus [6]): <=50%
fold change (FC) (Rattus norvegicus [7]): <=6
Activity (Rattus norvegicus [8]): Active
Activity (Rattus norvegicus [9]): Active
Activity (Rattus norvegicus [10]): Active
Activity (Rattus norvegicus [11]): Active
Activity (Rattus norvegicus [12]): Active
Activity (Rattus norvegicus [13]): Toxic
Activity [14]: Active
Activity (Rattus norvegicus [15]): Non-toxic
Activity (Rattus norvegicus [16]): Active
Activity (Rattus norvegicus [17]): Active
Activity (Rattus norvegicus [18]): Active
Activity (Rattus norvegicus [19]): Active
